Results on eleven compounds are retold here after patent publication US8613914B2, “Peptidomimetic sulfamide compounds and antiviral uses thereof” (Novartis AG, priority 2009, dated 2013).

A word on the IC50: it is the concentration needed to halve the response being measured.

Sequence of HCV NS3-4A serine protease (full-length NS3-4A protein) (P26664 1027-1657): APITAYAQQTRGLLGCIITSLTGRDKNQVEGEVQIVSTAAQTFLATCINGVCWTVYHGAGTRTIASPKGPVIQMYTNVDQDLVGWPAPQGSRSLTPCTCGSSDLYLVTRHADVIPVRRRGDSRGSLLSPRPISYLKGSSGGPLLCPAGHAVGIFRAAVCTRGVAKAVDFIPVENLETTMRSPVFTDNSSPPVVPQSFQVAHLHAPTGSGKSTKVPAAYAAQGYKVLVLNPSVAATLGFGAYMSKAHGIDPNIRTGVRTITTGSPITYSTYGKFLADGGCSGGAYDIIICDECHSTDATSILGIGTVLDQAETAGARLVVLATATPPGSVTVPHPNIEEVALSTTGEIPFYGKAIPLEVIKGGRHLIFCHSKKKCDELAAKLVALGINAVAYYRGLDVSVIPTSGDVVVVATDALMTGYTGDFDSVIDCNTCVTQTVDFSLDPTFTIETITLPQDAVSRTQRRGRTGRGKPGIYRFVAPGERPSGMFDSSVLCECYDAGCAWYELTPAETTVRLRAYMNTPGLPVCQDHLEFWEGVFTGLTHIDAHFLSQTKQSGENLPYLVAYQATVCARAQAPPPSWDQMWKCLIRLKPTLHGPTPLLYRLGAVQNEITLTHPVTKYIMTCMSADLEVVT
Sequence of HCV NS3-4A serine protease (full-length NS3-4A protein) (P26664 1658-1711 partner): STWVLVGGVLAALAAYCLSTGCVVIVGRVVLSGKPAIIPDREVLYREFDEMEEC

This assay concerns the target HCV NS3-4A serine protease (full-length NS3-4A protein) (Hepatitis C virus genotype 1a (isolate 1) (HCV), UniProt P26664). Put plainly: HCV NS3-4A protease assay. In kind it is biochemical, HCV genotype 1a. Conditions: strain HCV-1, fluorogenic peptide substrate, read-out: Protease assay Ex. 12 IC50. The method, then:
The inhibitory activity of certain compounds of Table A against HCV NS3-4A serine protease is determined in a homogenous assay using the full-length NS3-4A protein (genotype 1a, strain HCV-1) and a commercially available internally-quenched fluorogenic peptide substrate as described by Taliani, M., et al. 1996 Anal. Biochem. 240:60-67, which is incorporated by reference in its entirety.
`C=C[C@@H]1C[C@]1(NC(=O)[C@@H]1C[C@@]2(CN1C(=O)[C@@H](NC(=O)[C@@H](NC(=O)[C@@H]1CCCCN1C(C)C)C1CCOCC1)C(C)(C)C)C(C)(C)C21CCC1)C(=O)NS(=O)(=O)N1CCCC1` [Compound 44, (5R,8S)-7-[(2S)-2-{[(2S)-2-({[(2S)-1-isopropylpiperidin-2-yl]carbonyl}amino)-2-(tetrahydro-2H-pyran-4-yl)acetyl]amino}-3,3-dimethylbutanoyl]-10,10-dimethyl-N-{(1R,2S)-1-[(pyrrolidin-1-ylsulfonyl)carbamoyl]-2-vinylcyclopropyl}-7-azadispiro[3.0.4.1]decane-8-carboxamide]: the IC50 turned out to be 15 nM.
For the compound `C=C[C@@H]1C[C@]1(NC(=O)[C@@H]1C[C@@]2(CN1C(=O)[C@@H](NC(=O)[C@@H](NC(=O)[C@@H]1SCCN1CC)C1CCCCC1)C(C)(C)C)C(C)(C)C21CCC1)C(=O)NS(=O)(=O)N1CCCC1` [Compound 144, (5R,8S)-7-[(2S)-2-{[(2S)-2-cyclohexyl-2-({[(2S)-3-ethyl-1,3-thiazolidin-2-yl]carbonyl}amino)acetyl]amino}-3,3-dimethylbutanoyl]-10,10-dimethyl-N-{(1R,2S)-1-[(pyrrolidin-1-ylsulfonyl)carbamoyl]-2-vinylcyclopropyl}-7-azadispiro[3.0.4.1]decane-8-carboxamide], the IC50 worked out at 9 nM.
To `C=C[C@@H]1C[C@]1(NC(=O)[C@@H]1C[C@@]2(CN1C(=O)[C@@H](NC(=O)[C@@H](NC(=O)[C@@H]1CCCN1CC)C1(C)CCCCC1)C(C)(C)C)C(C)(C)C21CCC1)C(=O)NS(=O)(=O)N(CC)CC` [Compound 134, (5R,8S)-N-[(1R,2S)-1-{[(diethylamino)sulfonyl]carbamoyl}-2-vinylcyclopropyl]-7-[(2S)-2-{[(2S)-2-({[(2S)-1-ethylpyrrolidin-2-yl]carbonyl}amino)-2-(1-methylcyclohexyl)acetyl]amino}-3,3-dimethylbutanoyl]-10,10-dimethyl-7-azadispiro[3.0.4.1]decane-8-carboxamide] belongs 5 nM; to `C=C[C@@H]1C[C@]1(NC(=O)[C@@H]1C[C@@]2(CN1C(=O)[C@@H](NC(=O)[C@@H](NC(=O)[C@@H]1CCCN1CC)C1CCCCC1)C(C)(C)C)C(C)(C)C21CCC1)C(=O)NS(=O)(=O)N1CCCC1` [Compound 39, (5R,8S)-7-[(2S)-2-{[(2S)-2-cyclohexyl-2-({[(2S)-1-ethylpyrrolidin-2-yl]carbonyl}amino)acetyl]amino}-3,3-dimethylbutanoyl]-10,10-dimethyl-N-{(1R,2S)-1-[(pyrrolidin-1-ylsulfonyl)carbamoyl]-2-vinylcyclopropyl}-7-azadispiro[3.0.4.1]decane-8-carboxamide], 2.5 nM.
As for `C=C[C@@H]1C[C@]1(NC(=O)[C@@H]1C[C@@]2(CN1C(=O)[C@@H](NC(=O)[C@@H](NC(=O)[C@H]1CCCCN1C(C)C)C1CCCCC1)C(C)(C)C)C(C)(C)C21CCC1)C(=O)NS(=O)(=O)N(CC)CCC` [Compound 137, (5R,8S)-7-[(2S)-2-{[(2S)-2-cyclohexyl-2-({[(2R)-1-isopropylpiperidin-2-yl]carbonyl}amino)acetyl]amino}-3,3-dimethylbutanoyl]-N-[(1R,2S)-1-({[ethyl(propyl)amino]sulfonyl}carbamoyl)-2-vinylcyclopropyl]-10,10-dimethyl-7-azadispiro[3.0.4.1]decane-8-carboxamide], the IC50 is 3.5 nM.
Take `C=C[C@@H]1C[C@]1(NC(=O)[C@@H]1C[C@@]2(CN1C(=O)[C@@H](NC(=O)[C@@H](NC(=O)c1cc(C)nn1C(C)(C)C)C1CCCCC1)C(C)(C)C)C(C)(C)C21CCC1)C(=O)NS(=O)(=O)N1CCCC1` [Compound 183, (5R,8S)-7-[(2S)-2-{[{[(1-tert-butyl-3-methyl-1H-pyrazol-5-yl)carbonyl]amino}(cyclohexyl)acetyl]amino}-3,3-dimethylbutanoyl]-10,10-dimethyl-N-{(1R,2S)-1-[(pyrrolidin-1-ylsulfonyl)carbamoyl]-2-vinylcyclopropyl}-7-azadispiro[3.0.4.1]decane-8-carboxamide]: the IC50 is 95 nM.
In the case of `C=C[C@@H]1C[C@]1(NC(=O)[C@@H]1C[C@@]2(CN1C(=O)[C@@H](NC(=O)[C@@H](NC(=O)[C@@H]1CCCN1C(C)=O)C1CCCCC1)C(C)(C)C)C(C)(C)C21CCC1)C(=O)NS(=O)(=O)N1CCCC1` [Compound 187, (5R,8S)-7-[(2S)-2-{[({[(2S)-1-acetylpyrrolidin-2-yl]carbonyl}amino)(cyclohexyl)acetyl]amino}-3,3-dimethylbutanoyl]-10,10-dimethyl-N-{(1R,2S)-1-[(pyrrolidin-1-ylsulfonyl)carbamoyl]-2-vinylcyclopropyl}-7-azadispiro[3.0.4.1]decane-8-carboxamide], the IC50 was 25 nM.
As for `C=C[C@@H]1C[C@]1(NC(=O)[C@@H]1C[C@@]2(CN1C(=O)[C@@H](NC(=O)[C@@H](NC(=O)[C@@H]1CCCN1CC(F)F)C1CCCCC1)C1CCOCC1)C(C)(C)C21CCC1)C(=O)NS(=O)(=O)N1CCCC1` [Compound 72, (5R,8S)-7-[(2S)-2-{[(2S)-2-cyclohexyl-2-({[(2S)-1-(2,2-difluoroethyl)pyrrolidin-2-yl]carbonyl}amino)acetyl]amino}-2-(tetrahydro-2H-pyran-4-yl)acetyl]-10,10-dimethyl-N-{(1R,2S)-1-[(pyrrolidin-1-ylsulfonyl)carbamoyl]-2-vinylcyclopropyl}-7-azadispiro[3.0.4.1]decane-8-carboxamide], the IC50 worked out at 70 nM.
Consider `C=C[C@@H]1C[C@]1(NC(=O)[C@@H]1C[C@@]2(CN1C(=O)[C@@H](NC(=O)[C@@H](NC(=O)c1ccc3occc3c1)C1CCCCC1)C(C)(C)C)C(C)(C)C21CCC1)C(=O)NS(=O)(=O)N1CCCC1` [Compound 192, (5R,8S)-7-[(2S)-2-({[(1-benzofuran-5-ylcarbonyl)amino](cyclohexyl)acetyl}amino)-3,3-dimethylbutanoyl]-10,10-dimethyl-N-{(1R,2S)-1-[(pyrrolidin-1-ylsulfonyl)carbamoyl]-2-vinylcyclopropyl}-7-azadispiro[3.0.4.1]decane-8-carboxamide], for which the IC50 is 25 nM.
For the compound `C=C[C@@H]1C[C@]1(NC(=O)[C@@H]1C[C@@]2(CN1C(=O)[C@@H](NC(=O)[C@@H](NC(=O)[C@@H]1CCCN1CC)C1CCOCC1)C1(C)CCOCC1)C(C)(C)C21CCC1)C(=O)NS(=O)(=O)N1CCCC1` [Compound 129, (5R,8S)-7-[(2S)-2-{[(2S)-2-({[(2S)-1-ethylpyrrolidin-2-yl]carbonyl}amino)-2-(tetrahydro-2H-pyran-4-yl)acetyl]amino}-2-(4-methyltetrahydro-2H-pyran-4-yl)acetyl]-10,10-dimethyl-N-{(1R,2S)-1-[(pyrrolidin-1-ylsulfonyl)carbamoyl]-2-vinylcyclopropyl}-7-azadispiro[3.0.4.1]decane-8-carboxamide], the IC50 is 6 nM.
For `C=C[C@@H]1C[C@]1(NC(=O)[C@@H]1C[C@@]2(CN1C(=O)[C@@H](NC(=O)[C@@H](NC(=O)C1CCN(C(C)=O)CC1)C1CCCCC1)C(C)(C)C)C(C)(C)C21CCC1)C(=O)NS(=O)(=O)N1CCCC1` [Compound 194, (5R,8S)-7-[(2S)-2-{[{[(1-acetylpiperidin-4-yl)carbonyl]amino}(cyclohexyl)acetyl]amino}-3,3-dimethylbutanoyl]-10,10-dimethyl-N-{(1R,2S)-1-[(pyrrolidin-1-ylsulfonyl)carbamoyl]-2-vinylcyclopropyl}-7-azadispiro[3.0.4.1]decane-8-carboxamide], the IC50 was determined as 10 nM.
